Tested on: Pseudomonas aeruginosa PA14
Assay: Microfluidic pressure-driven flow assay (biofilm streamer clogging)
Assay type: cell-based
Details: low concentration of tetracycline; microfluidic channel
Procedure: Overnight P. aeruginosa cultures were backdiluted 1:100 in tryptone broth and grown to midlogarithmic phase (OD600=0.5). This culture (100 mL) was used to fill a reservoir connected via Tygon tubing (inner diameter 2.4 mm) to a microfluidic channel made from polydimethylsiloxane (PDMS) (Sylgard 184, Dow Corning). The channels (FIG. 1A) are 90 μm high, 200 μm wide, and constitute the narrowest part of the experimental flow system. Analogous to the inlet, the outlet of the microfluidic channel is also connected to Tygon tubing, and the effluent culture is collected in a dish on an analytical balance. By changing the elevation of the culture reservoir above the effluent collection dish, the applied pressure difference Δp is altered, which alters the flow rate through the channel. Operating this system for 24 h with H2O at a flow rate of 15.7±0.05 μL/min reduced the liquid level in the reservoir to decrease the pressure drop across the channel by 2.1%. […]
The weight of the effluent culture was measured every 4 s on an analytical balance (GD503, Sartorius), controlled with LabVIEW. […]
where the density was assumed to be the density of water, 1 kg/L. T and τ were calculated by fitting the function
[formula] to the measured flow rate Q(t), where Q0 is the flow rate before the clogging transition. […]

Question: `CN(C)[C@@H]1C(O)=C(C(N)=O)C(=O)[C@@]2(O)C(O)=C3C(=O)c4c(O)cccc4[C@@](C)(O)[C@H]3C[C@@H]12` [tetracycline] was tested. Which “duration of the clogging transition (τ)” value did it give?
Answer: Its value is “no effect”.

From patent publication US9752175B2, “Systems and methods to detect biofilm streamer growth and their uses” (The Trustees of Princeton University, priority 2014, dated 2017)
